The source of these data is patent publication US9365588B2, “Benzoxazines as modulators of ion channels” (Vertex Pharmaceuticals Incorporated, priority 2011, dated 2016).

Some results are limits rather than exact numbers.

For this assay, the target named is human NaV 1.7 (Homo sapiens, UniProt Q15858). Briefly: E-VIPR optical membrane potential assay with electrical stimulation. The format is cell-based. As to conditions: sodium channel inhibition; read-out: Binned Activity Data (IC50). The method, boiled down: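 Membrane-potential read-out: background-subtracted 460 nm/580 nm ratio during a 9 s current-controlled stimulus, 400 Hz scan. Before stimulation, NaV1.7-HEK cells carried coumarin/oxonol dye and compound (final DMSO 0.625%) for 20–35 min at room temperature; tetracaine 125 μM served as positive control.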
Chain of human NaV 1.7 (Q15858 whole entry): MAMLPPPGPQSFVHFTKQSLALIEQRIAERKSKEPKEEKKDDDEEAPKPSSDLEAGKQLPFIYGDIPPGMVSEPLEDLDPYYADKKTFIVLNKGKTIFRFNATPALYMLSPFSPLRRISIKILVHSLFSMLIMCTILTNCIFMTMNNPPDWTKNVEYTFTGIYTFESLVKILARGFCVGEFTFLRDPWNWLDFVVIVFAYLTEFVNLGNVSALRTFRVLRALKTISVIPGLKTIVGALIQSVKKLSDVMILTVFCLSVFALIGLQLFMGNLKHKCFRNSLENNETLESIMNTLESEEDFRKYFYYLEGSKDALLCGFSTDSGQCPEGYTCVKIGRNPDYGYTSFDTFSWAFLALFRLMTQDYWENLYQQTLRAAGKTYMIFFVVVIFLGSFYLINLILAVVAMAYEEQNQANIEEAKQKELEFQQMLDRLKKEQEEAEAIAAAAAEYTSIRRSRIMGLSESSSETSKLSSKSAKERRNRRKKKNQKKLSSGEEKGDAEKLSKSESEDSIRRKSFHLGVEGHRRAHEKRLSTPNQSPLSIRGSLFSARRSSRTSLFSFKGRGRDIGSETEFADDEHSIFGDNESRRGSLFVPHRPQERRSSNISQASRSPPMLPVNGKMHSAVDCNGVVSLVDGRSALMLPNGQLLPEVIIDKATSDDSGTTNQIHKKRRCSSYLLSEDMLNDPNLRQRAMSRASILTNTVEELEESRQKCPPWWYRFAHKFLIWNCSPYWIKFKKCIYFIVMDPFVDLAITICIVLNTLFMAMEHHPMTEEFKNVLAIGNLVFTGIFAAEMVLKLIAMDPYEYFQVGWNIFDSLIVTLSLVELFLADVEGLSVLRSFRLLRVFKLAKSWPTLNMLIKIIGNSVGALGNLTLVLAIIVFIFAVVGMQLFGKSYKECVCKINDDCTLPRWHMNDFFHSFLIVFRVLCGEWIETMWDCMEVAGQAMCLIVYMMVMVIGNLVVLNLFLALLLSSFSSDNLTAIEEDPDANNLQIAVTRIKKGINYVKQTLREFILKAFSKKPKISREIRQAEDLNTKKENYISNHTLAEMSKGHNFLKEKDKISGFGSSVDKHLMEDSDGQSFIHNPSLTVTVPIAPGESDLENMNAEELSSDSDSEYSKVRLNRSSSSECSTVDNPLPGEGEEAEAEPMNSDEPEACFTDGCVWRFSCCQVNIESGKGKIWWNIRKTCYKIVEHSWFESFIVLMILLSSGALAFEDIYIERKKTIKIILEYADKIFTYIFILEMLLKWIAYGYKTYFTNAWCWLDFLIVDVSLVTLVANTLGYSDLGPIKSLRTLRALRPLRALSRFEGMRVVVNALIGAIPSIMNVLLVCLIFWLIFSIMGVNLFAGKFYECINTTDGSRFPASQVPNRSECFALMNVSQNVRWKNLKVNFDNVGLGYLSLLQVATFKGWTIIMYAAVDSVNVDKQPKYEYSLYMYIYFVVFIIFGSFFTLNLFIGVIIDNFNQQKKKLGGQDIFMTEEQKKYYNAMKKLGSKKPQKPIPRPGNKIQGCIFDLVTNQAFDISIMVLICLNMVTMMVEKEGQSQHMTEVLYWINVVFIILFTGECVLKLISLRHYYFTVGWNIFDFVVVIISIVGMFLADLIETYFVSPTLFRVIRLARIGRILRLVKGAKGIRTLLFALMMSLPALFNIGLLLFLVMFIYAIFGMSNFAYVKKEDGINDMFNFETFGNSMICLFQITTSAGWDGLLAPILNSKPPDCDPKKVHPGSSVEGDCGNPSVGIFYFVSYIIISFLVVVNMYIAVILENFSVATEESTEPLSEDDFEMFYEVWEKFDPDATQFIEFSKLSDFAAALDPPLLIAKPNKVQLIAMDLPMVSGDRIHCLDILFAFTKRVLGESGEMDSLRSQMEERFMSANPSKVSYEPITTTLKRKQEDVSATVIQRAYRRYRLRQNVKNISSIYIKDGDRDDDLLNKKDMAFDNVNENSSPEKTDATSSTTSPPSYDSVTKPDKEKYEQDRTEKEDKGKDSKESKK
Consider `CC(C)(C)S(=O)(=O)c1ccsc1C(=O)N1CCC2(CC1)Oc1ccccc1-n1c(C(F)(F)F)ccc12` [Compound 207], for which the 50% inhibitory concentration (IC50) is at most 2000 nM. On to `CC(C)Oc1ccc(C(=O)N2CCC3(CC2)Oc2cc(C#N)ccc2-n2cccc23)cc1` [Compound 208], for which the IC50 was at most 2000 nM. Take `O=C(c1ccc(S(=O)(=O)NC2CC2)cc1)N1CCC2(CC1)Oc1ccccc1-n1cccc12` [Compound 209]: the IC50 is at most 2000 nM.

Regarding `COCCOc1ccc(C(=O)N2CCC3(CC2)Oc2cc(Cl)ccc2-n2cccc23)cc1C` [Compound 211], the concentration for half-maximal inhibition (IC50) is at most 2000 nM.

On to `CCOc1ccccc1C(=O)N1CCC2(CC1)Oc1ccccc1-c1c2cnn1C` [Compound 212], for which the 50% inhibitory concentration (IC50) is at most 2000 nM. Take `Cc1cc(C(=O)N2CCC3(CC2)Oc2ccc(Cl)cc2-c2c3cnn2C)ccc1OC(C)C` [Compound 213]: the 50% inhibitory concentration (IC50) is at most 2000 nM. The value for `O=C(c1cc2occc2[nH]1)N1CCC2(CC1)Oc1ccccc1-n1c(C(F)(F)F)ccc12` [Compound 214] was over 5000 nM. Take `Cc1cc(C(=O)N2CCC3(CC2)Oc2cc(F)ccc2-n2cccc23)ccc1C#N` [Compound 215]: the half-inhibitory concentration (IC50) was at most 2000 nM. Take `COc1cc(C(=O)N2CCC3(CC2)Oc2cc(Cl)ccc2-n2cccc23)ccc1C(C)(C)O` [Compound 216]: the IC50 is at most 2000 nM. `Cc1ccccc1C(=O)N1CCC2(CC1)Oc1ccccc1-c1c2cnn1C` [Compound 217]: the concentration for half-maximal inhibition (IC50) was 2000 to 5000 nM. Next, `Cn1ncc2c1-c1ccccc1OC21CCN(C(=O)c2cn(C)c3ccccc23)CC1` [Compound 218]: at most 2000 nM; `COCc1ccccc1C(=O)N1CCC2(CC1)Oc1ccccc1-c1c2cnn1C` [Compound 219]: at most 2000 nM.

For `CC(C)(C)c1ccc(C(=O)N2CCC3(CC2)Oc2cc(Cl)ccc2-n2cccc23)cc1C#N` [Compound 220], the IC50 was at most 2000 nM. With `Cc1cc(C)cc(C(=O)N2CCC3(CC2)Oc2cc(Cl)ccc2-n2cccc23)c1` [Compound 222], the half-inhibitory concentration (IC50) was at most 2000 nM. Take `COCCOc1ccc(C(=O)N2CCC3(CC2)Oc2ccccc2-n2c(C(F)(F)F)ccc23)cc1OC` [Compound 223]: the IC50 was at most 2000 nM. Next, `Cc1nc2cccc(C(=O)N3CCC4(CC3)Oc3ccccc3-c3c4cnn3C)c2o1` [Compound 224]: at most 2000 nM. Consider `COc1ccc(C(=O)N2CCC3(CC2)Oc2ccccc2-c2c3cnn2C)cc1Cl` [Compound 227], for which the IC50 is 2000 to 5000 nM. For the compound `COc1cc(C(=O)N2CCC3(CC2)Oc2cc(F)ccc2-n2cccc23)ccc1OC[C@H]1COC(C)(C)O1` [Compound 228], the IC50 is at most 2000 nM. With `Cn1cc2c(n1)-c1ccccc1OC21CCN(C(=O)c2ccc(C(C)(C)O)cc2)CC1` [Compound 230], the IC50 was at most 2000 nM.

On to `C[C@](O)(CO)c1ccc(C(=O)N2CCC3(CC2)Oc2ccccc2-n2c(C(F)(F)F)ccc23)cc1` [Compound 231], for which the IC50 was over 5000 nM.

Consider `CC(C)N(C)S(=O)(=O)c1ccc(C(=O)N2CCC3(CC2)Oc2ccccc2-c2c3cnn2C)cc1` [Compound 233], for which the half-inhibitory concentration (IC50) was 2000 to 5000 nM.

Consider `CC(=O)c1ccc2n1-c1ccccc1OC21CCN(C(=O)c2ccc(S(=O)(=O)NC3CC3)cc2)CC1` [Compound 235], for which the 50% inhibitory concentration (IC50) is at most 2000 nM. In the case of `COc1ccc(C)cc1C(=O)N1CCC2(CC1)Oc1ccccc1-c1c2cnn1C` [Compound 236], the IC50 was over 5000 nM. On to `COC[C@@H](C)Oc1ccc(C(=O)N2CCC3(CC2)Oc2ccccc2-n2cccc23)cc1C(F)(F)F` [Compound 237], for which the IC50 is at most 2000 nM.

As to `COCCCOc1ccc(C(=O)N2CCC3(CC2)Oc2cc(Cl)ccc2-n2cccc23)cc1C(F)(F)F` [Compound 238], the concentration for half-maximal inhibition (IC50) is at most 2000 nM. As to `CCc1ccc(C(=O)N2CCC3(CC2)Oc2ccccc2-n2cccc23)cc1OC` [Compound 239], the IC50 was at most 2000 nM. Turning to `COc1cc(OC)c(C(=O)N2CCC3(CC2)Oc2ccccc2-c2nn(C)cc23)cc1OC` [Compound 240], the concentration for half-maximal inhibition (IC50) lay within 2000 to 5000 nM. Take `O=C(c1ccccc1)N1CCC2(CC1)Oc1ccccc1-n1cccc12` [Compound 241]: the IC50 was over 5000 nM. On to `Cn1ncc2c1-c1ccccc1OC21CCN(C(=O)c2cccc(F)c2F)CC1` [Compound 242], for which the IC50 was over 5000 nM. As to `Cn1ncc2c1-c1ccccc1OC21CCN(C(=O)c2ccc(S(=O)(=O)NC3CC3)cc2)CC1` [Compound 243], the IC50 was at most 2000 nM. Consider `CNC(=O)c1ccc2n1-c1ccc(Cl)cc1OC21CCN(C(=O)c2ccc(OC(C)C)c(C)c2)CC1` [Compound 245], for which the half-maximal inhibitory concentration (IC50) lay in the range of 2000 to 5000 nM.

On to `CC(C)Oc1ccc(C(=O)N2CCC3(CC2)Oc2ccccc2-c2nn(C)cc23)c(F)c1` [Compound 246], for which the half-maximal inhibitory concentration (IC50) is at most 2000 nM. `COc1cc(C(=O)N2CCC3(CC2)Oc2ccccc2-n2cccc23)ccc1OC(C)C` [Compound 247]: the half-maximal inhibitory concentration (IC50) is at most 2000 nM. `COc1ccc(C(=O)N2CCC3(CC2)Oc2cc(F)ccc2-n2cccc23)cc1C(F)(F)F` [Compound 249]: the concentration for half-maximal inhibition (IC50) is at most 2000 nM. As to `Cn1ccc(C(=O)N2CCC3(CC2)Oc2cc(Cl)ccc2-n2c(C(F)(F)F)ccc23)cc1=O` [Compound 250], the IC50 fell in the range of 2000 to 5000 nM. As for `CCc1ccc(C(=O)N2CCC3(CC2)Oc2ccccc2-c2c3cnn2C)cc1OC` [Compound 251], the half-inhibitory concentration (IC50) was at most 2000 nM. As for `Cc1c(C(=O)N2CCC3(CC2)Oc2ccccc2-c2c3cnn2C)cnn1-c1ccccc1` [Compound 252], the IC50 was in the range of 2000 to 5000 nM.

With `CCn1ncc2c1-c1ccccc1OC21CCN(C(=O)c2ccc(S(=O)(=O)C(C)C)cc2)CC1` [Compound 253], the IC50 was at most 2000 nM.

For the compound `Cc1cc(C(=O)N2CCC3(CC2)Oc2ncccc2-n2nccc23)ccc1OC(C)C` [Compound 255], the concentration for half-maximal inhibition (IC50) is at most 2000 nM.

For the compound `COc1cc(C(=O)N2CCC3(CC2)Oc2ccccc2-c2c3cnn2C)ccc1OC(C)C` [Compound 256], the IC50 was at most 2000 nM. Consider `CCc1ccc(C(=O)N2CCC3(CC2)Oc2ccccc2-c2sc(C)nc23)cc1OC` [Compound 257], for which the half-inhibitory concentration (IC50) was at most 2000 nM. In the case of `Cn1ncc2c1-c1ccc(F)cc1OC21CCN(C(=O)c2ccccc2OC(F)F)CC1` [Compound 258], the IC50 was at most 2000 nM. `COc1cccc(C)c1C(=O)N1CCC2(CC1)Oc1ccccc1-c1c2cnn1C` [Compound 259]: the IC50 was at most 2000 nM. On to `CC(C)S(=O)(=O)c1ccc(C(=O)N2CCC3(CC2)Oc2ccccc2-n2c(C(F)F)ccc23)cc1` [Compound 260], for which the IC50 lay within 2000 to 5000 nM. As for `Cc1nc(C(=O)N2CCC3(CC2)Oc2ccccc2-c2nn(C)cc23)ccc1OC(C)C` [Compound 262], the IC50 was at most 2000 nM. Consider `O=C(c1ccc(O[C@H]2CCOC2)c(C(F)(F)F)c1)N1CCC2(CC1)Oc1ccccc1-n1cccc12` [Compound 263], for which the 50% inhibitory concentration (IC50) is at most 2000 nM. The value for `CC(C)(C)c1ccc(C(=O)N2CCC3(CC2)Oc2ccccc2-n2c3ccc2S(C)(=O)=O)cc1` [Compound 265] was at most 2000 nM; that for `CCn1ncc2c1-c1cc(F)ccc1OC21CCN(C(=O)c2ccc(OC(C)C)c(C)c2)CC1` [Compound 267] was at most 2000 nM; that for `CCCOc1ccc(C(=O)N2CCC3(CC2)Oc2cc(Cl)ccc2-n2cccc23)cc1C(F)(F)F` [Compound 269] was at most 2000 nM. Turning to `O=C(c1ccc(S(=O)(=O)C2CC2)cc1)N1CCC2(CC1)Oc1ccccc1-n1c(C(F)(F)F)ccc12` [Compound 270], the IC50 was at most 2000 nM. With `Cc1cc(C(=O)N2CCC3(CC2)Oc2cccnc2-c2c3cnn2C)ccc1OC(C)C` [Compound 271], the half-maximal inhibitory concentration (IC50) is over 5000 nM.

With `N#Cc1cccc(C(=O)N2CCC3(CC2)Oc2cc(Cl)ccc2-n2cccc23)c1` [Compound 272], the IC50 was over 5000 nM.

As to `Cc1cc(C(=O)N2CCC3(CC2)Oc2ccccc2-c2c3c(C)nn2C)ccc1OC(C)C` [Compound 274], the concentration for half-maximal inhibition (IC50) was at most 2000 nM.

Regarding `CC(C)Oc1ccc(C(=O)N2CCC3(CC2)Oc2ccccc2-c2nn(C)cc23)cc1CO` [Compound 276], the IC50 was at most 2000 nM. On to `O=C(c1cc(Cl)cc(Cl)c1)N1CCC2(CC1)Oc1cc(Cl)ccc1-n1cccc12` [Compound 277], for which the concentration for half-maximal inhibition (IC50) was at most 2000 nM. Consider `COc1cc(C(=O)N2CCC3(CC2)Oc2ccccc2-c2nn(C)cc23)ccc1OC(C)C` [Compound 281], for which the IC50 was at most 2000 nM. The value for `CC(C)Oc1ccc(C(=O)N2CCC3(CC2)Oc2ccccc2-n2c3ccc2S(C)(=O)=O)cc1F` [Compound 282] was at most 2000 nM.

With `Cn1ncc2c1-c1cc(Cl)ccc1OC21CCN(C(=O)c2ccccc2OC(F)F)CC1` [Compound 283], the IC50 is at most 2000 nM. The value for `Cn1cc2c(n1)-c1ccccc1OC21CCN(C(=O)c2ccc(OC(F)F)cc2)CC1` [Compound 284] was at most 2000 nM; that for `N#Cc1ccc2n1-c1ccccc1OC21CCN(C(=O)c2ccccc2OC(F)F)CC1` [Compound 285] was at most 2000 nM; that for `CC(C)Oc1ccc(C(=O)N2CCC3(CC2)Oc2ccccc2-n2c([S+](C)[O-])ccc23)cc1CO` (stereo not drawn) [Compound 286] was at most 2000 nM. The value for `COc1cc(C(=O)N2CCC3(CC2)Oc2cc(Cl)ccc2-n2cccc23)ccc1C1(O)COC1` [Compound 287] was at most 2000 nM; that for `COc1ccc2c(c1)OC1(CCN(C(=O)c3ccc(OC(C)C)c(C)c3)CC1)c1cnn(C)c1-2` [Compound 289] was at most 2000 nM. On to `Cn1ncc2c1-c1ccccc1OC21CCN(C(=O)c2cccc3c2OCC3)CC1` [Compound 290], for which the concentration for half-maximal inhibition (IC50) was at most 2000 nM. The value for `COc1cc(C(=O)N2CCC3(CC2)Oc2cc(Cl)ccc2-n2cccc23)ccc1OCCOC(F)(F)F` [Compound 291] was at most 2000 nM; that for `Cn1ncc2c1-c1ccccc1OC21CCN(C(=O)c2ccccc2OC2CCOCC2)CC1` [Compound 292] was at most 2000 nM.

For the compound `N#Cc1ccc2n1-c1ccccc1OC21CCN(C(=O)c2ccc(OC[C@@H](O)CO)cc2)CC1` [Compound 293], the half-inhibitory concentration (IC50) is at most 2000 nM. In the case of `CC(C)(C)c1ccc(C(=O)N2CCC3(CC2)Oc2ccccc2-n2c(C#N)ccc23)cc1` [Compound 295], the IC50 was at most 2000 nM. As to `CC(C)Oc1ccc(C(=O)N2CCC3(CC2)Oc2ccccc2-n2c3ccc2S(C)(=O)=O)cc1CO` [Compound 296], the 50% inhibitory concentration (IC50) was at most 2000 nM.
